Laboratory results from patent publication US20040018220A1, “Aqueous compositions for facial cosmetics” (Chiou Consulting, Inc., priority 2002, published 2004).

Tested on: facial skin
Test: Single application of glycerin U.S.P. and other strengths of aqueous glycerin solutions and gels (Example IV)
Format: in vivo, human

Q: Which results are given for `OCC(O)CO` [Glycerin U.S.P., glycerin]?
A: feeling on application (applied to a wetted facial surface): better feeling (reduced stickiness); shiny, moist, softening and dewy effects (single application, one human subject): results similar to those described in Example I
